Usually IC50 stands for the concentration that inhibits the measured activity by half. Read a low IC50 as greater potency.

Molecules are shown by their SMILES. Counter-ions that a name gives are not always drawn.

Data on eight compounds can be found in US12643880B2, “Heterobifunctional molecules as TEAD inhibitors” (Genentech, Inc., priority 2020, dated 2026).

Holding throughout (type): binding
Holding throughout (conditions): His-tagged TEAD protein, biotinylated lipid pocket probe

One experiment deals with TEAD1 (Homo sapiens, UniProt P28347). The experiment is described as follows: TEAD lipid pocket TR-FRET (Lipid HTRF) competition assay, TEAD1. As to the method:
(§1) His-tagged TEAD proteins are pre-incubated with TEAD project compounds for 30 minutes at room temperature. Biotinylated lipid pocket probes are then added to the TEAD/Compound mixture and incubated for 60 minutes at room temperature. The lipid pocket probe competes with the test compound for the TEAD lipid pocket until equilibrium is reached. After 60 minutes, Europium labelled anti-His (Perkin Elmer #ADO 110) and XL665 labelled streptavidin (CIS Bio 610SAXAC) are added to the TEAD/test compound/lipid pocket mixture and incubated for 30 minutes. TR-FRET values are then measured using an EnVision multi-label plate reader (Perkin Elmer Cat #2104-1A.) If the lipid pocket probe binds to TEAD as expected, a TR-FRET signal results from the proximity of Tani-His Eu and XL665. If a TEAD lipid pocket binder such as binds and displaces the lipid pocket probe, the disruption of the TEAD:probe interaction results in a decrease in TR-FRET signal. The potency of compounds as TEAD lipid pocket binders is determined by IC50 value generated using a non-linear 4 parameter curve fit. This assay format enables more sensitive determinations of lipid pocket affinity than the aforementioned TEAD lipid pocket FP assay due to the decreased concentration of TEAD protein required for the TR-FRET assay format.
(Time-resolved FRET reads energy transfer from a long-lived donor to a nearby acceptor.)

The target of the next experiment is TEAD2 (Homo sapiens, UniProt Q15562). The experiment is described as follows: TEAD lipid pocket TR-FRET (Lipid HTRF) competition assay, TEAD2. As to the method: as §1
Chain of TEAD2 (Q15562 whole entry, species assumed): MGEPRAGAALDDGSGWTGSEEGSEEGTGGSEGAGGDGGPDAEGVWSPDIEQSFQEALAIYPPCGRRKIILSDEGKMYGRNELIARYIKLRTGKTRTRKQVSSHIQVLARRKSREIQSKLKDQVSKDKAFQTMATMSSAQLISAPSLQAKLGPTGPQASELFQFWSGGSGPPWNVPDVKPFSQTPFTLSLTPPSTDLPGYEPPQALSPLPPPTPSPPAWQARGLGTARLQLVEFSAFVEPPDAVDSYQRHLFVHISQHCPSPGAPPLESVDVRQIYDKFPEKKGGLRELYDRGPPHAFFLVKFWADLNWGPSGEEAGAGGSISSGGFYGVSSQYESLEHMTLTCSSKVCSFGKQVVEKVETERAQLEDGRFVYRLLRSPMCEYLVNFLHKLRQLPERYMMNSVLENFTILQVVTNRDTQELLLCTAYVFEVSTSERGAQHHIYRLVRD
In another experiment the target is TEAD3 (Homo sapiens, UniProt Q99594). Kind of experiment: TEAD lipid pocket TR-FRET (Lipid HTRF) competition assay, TEAD3. As to the method: as §1
Chain of TEAD3 (Q99594 whole entry, species assumed): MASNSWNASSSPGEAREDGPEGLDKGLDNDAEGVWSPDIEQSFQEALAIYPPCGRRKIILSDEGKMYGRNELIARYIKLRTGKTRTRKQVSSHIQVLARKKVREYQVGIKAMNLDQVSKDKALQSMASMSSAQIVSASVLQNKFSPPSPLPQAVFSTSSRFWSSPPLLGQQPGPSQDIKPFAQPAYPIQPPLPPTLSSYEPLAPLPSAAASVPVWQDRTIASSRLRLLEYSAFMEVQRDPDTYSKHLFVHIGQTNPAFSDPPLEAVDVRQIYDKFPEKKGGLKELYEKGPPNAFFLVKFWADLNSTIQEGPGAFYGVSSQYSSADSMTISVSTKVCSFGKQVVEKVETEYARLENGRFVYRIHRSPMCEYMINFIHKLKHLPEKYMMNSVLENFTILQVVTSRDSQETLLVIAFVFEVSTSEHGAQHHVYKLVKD
The next experiment concerns the target TEAD4 (Homo sapiens, UniProt Q15561). The experiment is described as follows: TEAD lipid pocket TR-FRET (Lipid HTRF) competition assay, TEAD4. As to the method:
as §1

Chain of TEAD1 (P28347 whole entry, species assumed): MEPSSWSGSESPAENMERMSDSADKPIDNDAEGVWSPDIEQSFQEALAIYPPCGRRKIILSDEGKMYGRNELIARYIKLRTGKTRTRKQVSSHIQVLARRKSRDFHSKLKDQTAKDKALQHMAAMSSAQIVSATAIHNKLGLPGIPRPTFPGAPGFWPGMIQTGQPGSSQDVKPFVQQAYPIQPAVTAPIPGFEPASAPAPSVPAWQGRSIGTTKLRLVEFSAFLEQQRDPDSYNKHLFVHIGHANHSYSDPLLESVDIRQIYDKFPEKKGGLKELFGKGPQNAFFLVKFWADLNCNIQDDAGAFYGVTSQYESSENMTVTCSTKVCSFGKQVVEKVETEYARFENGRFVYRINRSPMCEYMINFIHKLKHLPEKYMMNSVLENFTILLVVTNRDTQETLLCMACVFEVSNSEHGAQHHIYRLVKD
Chain of TEAD4 (Q15561 whole entry, species assumed): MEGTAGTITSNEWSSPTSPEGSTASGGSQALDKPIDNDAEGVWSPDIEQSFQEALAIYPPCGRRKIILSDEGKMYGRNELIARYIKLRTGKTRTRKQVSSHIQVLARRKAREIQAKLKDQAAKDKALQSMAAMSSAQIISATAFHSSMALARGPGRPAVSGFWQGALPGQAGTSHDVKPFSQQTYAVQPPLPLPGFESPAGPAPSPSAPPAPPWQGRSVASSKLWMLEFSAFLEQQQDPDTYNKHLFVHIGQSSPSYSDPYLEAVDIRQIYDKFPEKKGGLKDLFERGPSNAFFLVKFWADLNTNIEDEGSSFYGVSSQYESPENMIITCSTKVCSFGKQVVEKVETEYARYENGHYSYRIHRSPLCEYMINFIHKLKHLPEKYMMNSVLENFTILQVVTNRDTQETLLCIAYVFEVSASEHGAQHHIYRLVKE

As to `COc1cnc(C(=O)NCc2cccc(CC(=O)NCCOCCOCC(=O)N[C@H](C(=O)N3C[C@H](O)C[C@H]3C(=O)NCc3ccc(-c4scnc4C)cc3)C(C)(C)C)c2)cc1/C=C/[C@H]1CC[C@H](C(F)(F)F)CC1` [Compound 14, N-(3-((S)-13-((2S,4R)-4-Hydroxy-2-((4-(4-methylthiazol-5-yl)benzyl)carbamoyl)pyrrolidine-1-carbonyl)-14,14-dimethyl-2,11-dioxo-6,9-dioxa-3,12-diazapentadecyl)benzyl)-5-methoxy-4-((E)-2-(trans-4-(trifluoromethyl)cyclohexyl)vinyl)picolinamide], the IC50 at TEAD1 came out at 720 nM; at TEAD2, 410 nM; on TEAD3 it was 3830 nM; on TEAD4, 170 nM.
In the same order, the values of `COc1cnc(C(=O)NCc2cccc(CC(=O)NCCOCCOCCOCC(=O)N[C@H](C(=O)N3C[C@H](O)C[C@H]3C(=O)NCc3ccc(-c4scnc4C)cc3)C(C)(C)C)c2)cc1/C=C/[C@H]1CC[C@H](C(F)(F)F)CC1` [Compound 15, N-(3-((S)-16-((2S,4R)-4-Hydroxy-2-((4-(4-methylthiazol-5-yl)benzyl)carbamoyl)pyrrolidine-1-carbonyl)-17,17-dimethyl-2,14-dioxo-6,9,12-trioxa-3,15-diazaoctadecyl)benzyl)-5-methoxy-4-((E)-2-(trans-4-(trifluoromethyl)cyclohexyl)vinyl)picolinamide] are 600 nM, 380 nM, 3630 nM and 170 nM.
As for `COc1cnc(C(=O)NCc2cccc(CC(=O)NCCOCCOCCOCCOCC(=O)N[C@H](C(=O)N3C[C@H](O)C[C@H]3C(=O)NCc3ccc(-c4scnc4C)cc3)C(C)(C)C)c2)cc1/C=C/[C@H]1CC[C@H](C(F)(F)F)CC1` [Compound 16, N-(3-((S)-19-((2S,4R)-4-Hydroxy-2-((4-(4-methylthiazol-5-yl)benzyl)carbamoyl)pyrrolidine-1-carbonyl)-20,20-dimethyl-2,17-dioxo-6,9,12,15-tetraoxa-3,18-diazahenicosyl)benzyl)-5-methoxy-4-((E)-2-(trans-4-(trifluoromethyl)cyclohexyl)vinyl)picolinamide], the IC50 at TEAD1 came out at 350 nM; at TEAD2, 160 nM; at TEAD3, 2570 nM; on TEAD4, 60 nM.
The like results for `COc1cnc(C(=O)NCc2cccc(CC(=O)NCCOCCOCCOCCOCCOCC(=O)N[C@H](C(=O)N3C[C@H](O)C[C@H]3C(=O)NCc3ccc(-c4scnc4C)cc3)C(C)(C)C)c2)cc1/C=C/[C@H]1CC[C@H](C(F)(F)F)CC1` [Compound 17, N-(3-((S)-22-((2S,4R)-4-Hydroxy-2-((4-(4-methylthiazol-5-yl)benzyl)carbamoyl)pyrrolidine-1-carbonyl)-23,23-dimethyl-2,20-dioxo-6,9,12,15,18-pentaoxa-3,21-diazatetracosyl)benzyl)-5-methoxy-4-((E)-2-(trans-4-(trifluoromethyl)cyclohexyl)vinyl)picolinamide] were, in that order, 280 nM, 90 nM, 1500 nM and 40 nM.
In the same order, the values of `CN[C@@H](C)C(=O)N[C@H](C(=O)N1CCC[C@H]1C(=O)Nc1sc(NC(=O)COCCOCCOCCOCCN(C)C(=O)Cc2cccc(CNC(=O)c3cc(/C=C/[C@H]4CC[C@H](C(F)(F)F)CC4)c(OC)cn3)c2)nc1-c1ccccc1)C1CCCCC1` [Compound 18, N-(3-(17-((5-((S)-1-((S)-2-Cyclohexyl-2-((S)-2-(methylamino)propanamido)acetyl)pyrrolidine-2-carboxamido)-4-phenylthiazol-2-yl)amino)-3-methyl-2,17-dioxo-6,9,12,15-tetraoxa-3-azaheptadecyl)benzyl)-5-methoxy-4-((E)-2-(trans-4-(trifluoromethyl)cyclohexyl)vinyl)picolinamide] are 600 nM, 490 nM, 4800 nM and 140 nM.
For the compound `CN[C@@H](C)C(=O)N[C@H](C(=O)N1CCC[C@H]1C(=O)Nc1sc(NC(=O)COCCOCCOCCOCCOCCN(C)C(=O)Cc2cccc(CNC(=O)c3cc(/C=C/[C@H]4CC[C@H](C(F)(F)F)CC4)c(OC)cn3)c2)nc1-c1ccccc1)C1CCCCC1` [Compound 19, N-(3-(20-((5-((S)-1-((S)-2-Cyclohexyl-2-((S)-2-(methylamino)propanamido)acetyl)pyrrolidine-2-carboxamido)-4-phenylthiazol-2-yl)amino)-3-methyl-2,20-dioxo-6,9,12,15,18-pentaoxa-3-azaicosyl)benzyl)-5-methoxy-4-((E)-2-(trans-4-(trifluoromethyl)cyclohexyl)vinyl)picolinamide], the IC50 is 540 nM at TEAD1, 360 nM on TEAD2, 4100 nM on TEAD3 and 140 nM on TEAD4.
Turning to `CN[C@@H](C)C(=O)N[C@H](C(=O)N1CCC[C@H]1C(=O)Nc1sc(NC(=O)COCCOCCOCCOCCOCCOCCN(C)C(=O)Cc2cccc(CNC(=O)c3cc(/C=C/[C@H]4CC[C@H](C(F)(F)F)CC4)c(OC)cn3)c2)nc1-c1ccccc1)C1CCCCC1` [Compound 20, N-(3-(23-((5-((S)-1-((S)-2-Cyclohexyl-2-((S)-2-(methylamino)propanamido)acetyl)pyrrolidine-2-carboxamido)-4-phenylthiazol-2-yl)amino)-3-methyl-2,23-dioxo-6,9,12,15,18,21-hexaoxa-3-azatricosyl)benzyl)-5-methoxy-4-((E)-2-(trans-4-(trifluoromethyl)cyclohexyl)vinyl)picolinamide formate], the half-inhibitory concentration (IC50) at TEAD1 was determined as 510 nM; at TEAD2, 340 nM; at TEAD3 it was 4300 nM; at TEAD4, 130 nM.
On to `CN[C@@H](C)C(=O)N[C@H](C(=O)N1CCC[C@H]1C(=O)Nc1sc(NC(=O)CCCN(C)C(=O)Cc2cccc(CNC(=O)c3cc(/C=C/[C@H]4CC[C@H](C(F)(F)F)CC4)c(OC)cn3)c2)nc1-c1ccccc1)C1CCCCC1` [Compound 21, N-(3-(2-((4-((5-((S)-1-((S)-2-Cyclohexyl-2-((S)-2-(methylamino)propanamido)acetyl)pyrrolidine-2-carboxamido)-4-phenylthiazol-2-yl)amino)-4-oxobutyl)(methyl)amino)-2-oxoethyl)benzyl)-5-methoxy-4-((E)-2-(trans-4-(trifluoromethyl)cyclohexyl)vinyl)picolinamide], for which the half-maximal inhibitory concentration (IC50) on TEAD1 stood at 1300 nM; at TEAD2, 1000 nM; on TEAD3 it was 6200 nM; at TEAD4 it was 430 nM.
